Our source for the EC50 values is PMC11487390, “Design and Synthesis of 1,3-Diarylpyrazoles and Investigation of Their Cytotoxicity and Antiparasitic Profile” (International Journal of Molecular Sciences, 2024).

Data set [1] deals with L. infantum MHOM/MA(BE)/67 strain. Nature of the data set: L. infantum intracellular amastigote assay in PMM (Giemsa, 5 days). Format: cell-based, Leishmania infantum. The protocol:
(§1) The MRC-5SV2 human lung fibroblast cell line was cultured in MEM + Earle’s salts-medium, supplemented with 2 mM L-glutamine, 16.5 mM NaHCO3, and 5% inactivated fetal calf serum. For evaluating the antileishmanial activity, the L. infantum MHOM/MA(BE)/67 strain was used. This strain was maintained in a Golden hamster (Mesocricetus auratus). Amastigotes were collected from the spleen of an infected donor hamster using differential centrifugation. Primary peritoneal mouse macrophages were used as host cells and were collected 2 days after peritoneal stimulation with a 2% potato starch suspension. For the intracellular T. cruzi assays, the Tulahuen CL2 strain was used that expresses β-galactosidase. The strain was maintained in MRC-5SV2 cells in MEM medium. The T. b. brucei Squib 427 strain or T. b. rhodesiense STIB-900 strain was used for screening against the extracellular African trypanosomes. The strains were maintained in Hirumi’s Modified Iscove’s medium-9 (HMI-9), supplemented with 10% inactivated fetal calf serum. All cultures and assays were performed at 37 °C with 5% CO2.
(§2) Compound stock solutions were prepared in 100% DMSO at 20 mM. The compounds were serially pre-diluted by robotic plate production (4-fold) in DMSO followed by a further (intermediate) dilution in demineralized water to assure a final in-test DMSO concentration of <1%. Identical test plates containing 10 µL of the different concentrations of each compound were produced for the different assays. For the cytotoxicity assays, 5 concentrations per compound were tested (64–16–4–1–0.25 µM). For the parasitic assays, 10 concentrations per compound were tested, ranging from 64 µM to 0.2 nM.
Primary peritoneal mouse macrophages (PMMs) were prepared in RPMI-1640 medium, supplemented with 2 mM L-glutamine, 16.5 mM NaHCO3, and 5% inactivated fetal calf serum. The macrophages are infected after 48 h with spleen-derived L. infantum amastigotes (3 × 10^4 PMM + 4.5 × 10^5 parasites/well). The compounds were added after 2 h of infection. After 5 days incubation, parasite burdens (mean number of amastigotes/macrophage) were assessed microscopically after staining with a 10% Giemsa solution and EC50 values were calculated.

Data set [2] can be described thus: Cytotoxicity assay, MRC-5SV2 cells, resazurin, 3 days. Format: cell-based. The conditions noted are these: human, MRC-5SV2 human lung fibroblast cells, MRC-5 cells, highest concentration 64 µM. Here is the method: The series of final products (13–69) was investigated in vitro on the human fetal lung fibroblast cell line MRC-5 (Table 1) to assess cytotoxicity toward normal (i.e., non-malignant) human cells. […] As explained earlier, these are important pathogens for humans or cattle (T. b. brucei) and a persistent need for new therapeutics exists for these parasites. As a part of the antiparasitic tests, cytotoxicity against primary mouse macrophages (PMMs) was also evaluated. These murine cells serve as host cells for parasites in the L. infantum assay. Therefore, the murine macrophage assay not only offers additional cytotoxicological insight but is also essential to interpreting the readout of the L. infantum assay.
as §1, §2
Assays were performed in sterile 96-well microtiter plates, each well containing 10 µL of the watery compound dilutions together with 190 µL of MRC-5SV2 inoculum (1.5 × 10^5 cells/mL). Cell growth was compared to untreated control wells (100% cell growth) and medium-control wells (0% cell growth). After 3 days incubation, MRC-5 viability was assessed fluorimetrically after addition of 50 μL resazurin per well (final concentration of 10 µg mL^−1). After 4 h at 37 °C, fluorescence was measured (λex 550 nm, λem 590 nm). The results were expressed as % reduction in cell growth/viability compared to positive (100% growth–0% inhibition) and negative (0% growth–100% inhibition) control wells from which EC50 values (50% effective concentrations) were derived using an excel macro that calculates the interpolation of the concentrations corresponding to the flanking points, just above and just below 50% inhibition.
A general note: Alamar Blue is a resazurin reagent that responds to reducing activity.

For data set [3], the system named is T. b. brucei Squib 427 strain. Nature of the data set: T. b. brucei growth assay (resazurin, 3 days). The conditions noted are these: Trypanosoma brucei, 72 h. In kind it is cell-based, Trypanosoma brucei brucei. The protocol:
as §1, §2
(§3) Parasite suspensions (1.5 × 10^4 T. b. brucei/well or 4 × 10^3 T. b. rhodesiense/well) in HMI-9 medium were exposed in a total volume of 200 µL to 10 µL of the compound dilutions Parasite growth was assessed fluorimetrically after 3 days of incubation by the addition of 50 µL resazurin per well. After 6 h (T. b. rhodesiense) or 24 h (T. b. brucei) at 37 °C, fluorescence was measured (λex 550 nm, λem 590 nm), from which viability and EC50 values could be determined.

The test system of data set [4] is Trypanosoma cruzi Tulahuen CL2 strain. Nature of the data set: Intracellular T. cruzi assay in MRC-5 cells (β-galactosidase/CPRG, 7 days). In kind it is cell-based. The conditions noted are these: Trypanosoma cruzi, TULAHUEN, MRC5, 168 h, intracellular in MRC-5 cells. The protocol: as §1, §2
MRC-5 cells were infected in 96-well plates using a harvested T. cruzi inoculum (4 × 10^3 MRC-5 cells/well + 4 × 10^4 parasites/well) and exposed to 10 µL of the compound dilutions (200 µL/well total volume). Parasite growth determined after 7 days of incubation and compared to untreated infected controls following the addition of the substrate CPRG (chlorophenolred ß-D-galactopyranoside): 50 µL/well of a stock solution containing 15.2 mg CPRG + 250 µL Nonidet in 100 mL PBS. The absorbance was measured spectrophotometrically at 540 nm after 4 h incubation at 37 °C and EC50 values were calculated.

Data set [5] relates to T. b. rhodesiense STIB-900 strain. Briefly: T. b. rhodesiense growth assay (resazurin, 3 days). In kind it is cell-based, Trypanosoma brucei rhodesiense. The conditions noted are these: Trypanosoma brucei, RHODESIENSE, 72 h. Here is the method:
as §1, §2, §3

Setting [6] is: Leishmania infantum, 120 h, amastigotes in PMM, 5 days, read-out: L. inf. (EC50).
The mark [7] stands for this setting: 3 days, read-out: T. b. bruc. (EC50).
[8] abbreviates: 3 days, read-out: T. b. rhod. (EC50).
The mark [9] stands for this setting: Leishmania infantum, 120 h, read-out: L. inf. (EC50, µM), amastigotes in PMM, 5 days.
[10] abbreviates: read-out: T. b. bruc. (EC50, µM), 3 days.
The mark [11] stands for this setting: read-out: T. b. rhod. (EC50, µM), 3 days.

Structures can show the parent of a compound that is named as a salt. Where two headings read alike, the source gives them in different places.

Consider `c1ccc(-n2cc(COCc3cn(-c4ccccc4)nc3-c3ccc4c(c3)OCCO4)nn2)cc1` [Compound 46, 4-(((3-(2,3-dihydrobenzo[b][1,4]dioxin-6-yl)-1-phenyl-1H-pyrazol-4-yl)methoxy)methyl)-1-phenyl-1H-1,2,3-triazole], for which the EC50 was 32.5 µM in data set [1] (setting [6]), 9.04 µM in data set [3] (setting [7]), > 64 µM in data set [4] and 2.18 µM in data set [5] (setting [8]). In addition, in data set [2], the EC50 at 3 days was > 64 µM.

Take `O=C(NCCc1ccccc1)c1cn(-c2ccccc2)nc1-c1ccc2c(c1)OCCO2` [Compound 34, 3-(2,3-dihydrobenzo[b][1,4]dioxin-6-yl)-N-phenethyl-1-phenyl-1H-pyrazole-4-carboxamide]: the EC50 in data set [1] (setting [6]) was > 64 µM; in data set [3] (setting [7]), > 64 µM; in data set [4] it was > 64 µM; in data set [5] (setting [8]), 4.74 µM. The molecule also had an EC50 at 3 days in data set [2] of 1.54 µM.

`FCc1cn(-c2ccccc2)nc1-c1ccc2c(c1)OCCO2` [Compound 52, 3-(2,3-dihydrobenzo[b][1,4]dioxin-6-yl)-4-(fluoromethyl)-1-phenyl-1H-pyrazole]: the EC50 in data set [1] (setting [6]) was > 64 µM; in data set [3] (setting [7]), > 64 µM; in data set [4], 23.9 µM; in data set [5] (setting [8]), 27.1 µM. In data set [2], this molecule returned an EC50 at 3 days of 22.6 µM.

Regarding `Fc1ccc(COCc2cn(-c3ccccc3)nc2-c2ccc3c(c2)OCCO3)cc1` [Compound 45, 3-(2,3-dihydrobenzo[b][1,4]dioxin-6-yl)-4-(((4-fluorobenzyl)oxy)methyl)-1-phenyl-1H-pyrazole], the EC50 is 22.6 µM in data set [1] (setting [6]), 27.2 µM in data set [3] (setting [7]), 5.51 µM in data set [4] and 7.16 µM in data set [5] (setting [8]). Besides, the EC50 at 3 days in data set [2] is > 64 µM.

With `COc1ccc(-c2nn(-c3ccccc3)cc2CNCCc2ccccn2)cc1` [Compound 64, N-((3-(4-methoxyphenyl)-1-phenyl-1H-pyrazol-4-yl)methyl)-2-(pyridin-2-yl)ethan-1-amine hydrochloride], the half-maximal effective concentration (EC50) in data set [1] (setting [9]) was found to be 8.06 µM; in data set [3] (setting [10]), 1.7 µM; in data set [4], 7.15 µM; in data set [5] (setting [11]), 1.57 µM. In addition, a half-maximal response in data set [2] (EC50 at 3 days) required 28.9 µM.

`COc1ccc(-c2nn(-c3ccccc3)cc2CN2CCOCC2)cc1` [Compound 66, 4-((3-(4-methoxyphenyl)-1-phenyl-1H-pyrazol-4-yl)methyl)morpholine hydrochloride]: the EC50 in data set [1] (setting [9]) was found to be 34.6 µM; in data set [3] (setting [10]) it was 27.8 µM; in data set [4], 22.4 µM; in data set [5] (setting [11]) it was 20.5 µM. For the same molecule, in data set [2], the EC50 at 3 days was > 64 µM.

Take `O=C(NCCN1CCOCC1)c1cn(-c2ccccc2)nc1-c1ccc2c(c1)OCCO2` [Compound 44, 3-(2,3-dihydrobenzo[b][1,4]dioxin-6-yl)-N-(2-morpholinoethyl)-1-phenyl-1H-pyrazole-4-carboxamide hydrochloride]: the EC50 in data set [1] (setting [9]) is 9.51 µM; in data set [1] (read-out: L. inf. (EC50), amastigotes in PMM, 5 days) it was 8.3 µM; in data set [3] (setting [10]), > 64 µM; in data set [4], 64 µM; in data set [5] (setting [11]), 19 µM. The EC50 at 3 days in data set [2] is > 64 µM.

`c1ccc(-n2cc(CNCCN3CCCC3)c(-c3ccc4c(c3)OCCO4)n2)nc1` [Compound 69, N-((3-(2,3-dihydrobenzo[b][1,4]dioxin-6-yl)-1-(pyridin-2-yl)-1H-pyrazol-4-yl)methyl)-2-(pyrrolidin-1-yl)ethan-1-amine dihydrochloride]: the EC50 is > 64 µM in data set [1] (setting [9]), 22.7 µM in data set [3] (setting [10]), > 64 µM in data set [4] and 24.8 µM in data set [5] (setting [11]). Also, the EC50 at 3 days in data set [2] is > 64 µM.

Turning to `O=C(NCCN1CCCC1)c1cn(-c2ccccc2)nc1-c1ccc2c(c1)OCCO2` [Compound 42, 3-(2,3-dihydrobenzo[b][1,4]dioxin-6-yl)-1-phenyl-N-(2-(pyrrolidin-1-yl)ethyl)-1H-pyrazole-4-carboxamide oxalate], the EC50 in data set [1] (setting [6]) is 27.3 µM; in data set [3] (setting [7]), 7.15 µM; in data set [4] it was 21.7 µM; in data set [5] (setting [8]), 6.43 µM. In data set [2], this molecule gave a concentration giving a half-maximal response (EC50) at 3 days of 28 µM.

By EC50 is commonly meant the concentration giving half of the maximal effect.
